Test results: patent US11013745B2, “Triazolopyrimidine, triazolopyridine compounds, and the composition thereof for treating PRC2-mediated diseases” (SHANGHAI INSTITUTE OF MATERIA MEDICA, CHINESE ACADEMY OF …, priority 2017, dated 2021)

Tests used:
Pfeiffer cells = assay: Pfeiffer cell growth inhibition in a long term (11 days), CellTiter-Glo; type: cell-based, Human; conditions: Homo sapiens, 264 h, 11 days, read-out: Experiment on Pfeiffer cell growth inhibition in a long term (11 days IC50)
Method: Pfeiffer cells in exponential growth phase were seeded in a 24-well plate with a cell density of 1*10E5 cells/mL. Cells were treated on the same day with the compounds at different concentrations. At day 4 and day 7 of compound treatment, fresh media and compounds were changed. After treated with the compounds for 11 days, cell viability was measured using CellTiter-Glo reagent (Promega Corporation). The data was analyzed using GraphPad Prism 5.0 software and GI50 values were obtained.

PRC2 enzyme = PRC2 enzyme (Homo sapiens (Human), UniProt O75530); assay: PRC2 enzyme activity, TR-FRET method; type: biochemical
Method: The TR-FRET method was used to measure the PRC2 enzyme activity. First, the enzyme was mixed with compounds at different concentrations and incubated for 30 min at room temperature. The biotin-labeled histone H3 peptide substrate and the cofactor S-adenosylmethionine (SAM) were added to initiate the enzymatic reaction. After reaction was performed at room temperature for 4 hour, Acceptor and Donor were added and incubated for half an hour. The multifunctional microplate reader EnVision (Perkin Elmer Inc.) was used to detect the fluorescence signal. Data were analyzed using GraphPad Prism 5.0 software, and IC50 values were obtained.

[1] = Liver microsomal stability (rat); type: in vitro ADME; conditions: rat liver microsomes
Method: (§1) 1. JANUS and temperature control device was turned on. After being initialized, the pipes were flushed until there was no air bubble in the pipes.
(§2) 2. Preparation of buffers used for the experiment
(§3) Preparation of Tris pH 7.4 buffer (0.1 M): 12.12 g of Tris was dissolved in 1000 mL of H2O, the resulting solution was adjusted to pH 7.4 with 2N HCl, aliquoted at 50 mL per tube, and stored at −20° C.
(§4) Preparation of H2O/0.1% BSA buffer: 200 μL of 25% BSA was added to 50 mL of H2O.
(§5) Preparation of VIVID stock solution: 1 mg of VIVID was dissolved in 1 mL of acetonitrile, aliquoted at 50 μL per tube, and stored at −20° C.
(§6) Preparation of MgCl2 solution (100 mM): 1.016 g of MgCl2 was dissolved in 50 mL Tris pH 7.4 buffer, and aliquoted at 1 mL per tube, and stored at −20° C.
(§7) Preparation of NADPH solution (10 mM): 355 mg of NADPH was dissolved in 42.6 mL of Tris pH 7.4 buffer, aliquoted at 1.8 mL per tube, and stored at −20° C.
(§8) Preparation of Blank control: 7.937 mL of Tris, 163 μL of RLM, 450 μL of MgCl2 solution, 450 μL of NADPH solution and 9 mL of methanol were mixed uniformly, aliquoted at 1 mL per tube, and stored at −20° C.
(§9) 3. Preparation of Compound Working Solution
(§10) Dilution step 1:10 μL of compound stock solution was added to 90 μL of DMSO=1 mM stock solution.
(§11) Dilution step 2: 2 μL of 1 mM stock solution was added to 1 mL of H2O/0.1%6 BSA buffer=[…] working solution.
(§12) Dilution step 3: 245 μL of the working solution was added to a 96-well compound plate and added with 5 μL of VIVID stock solution.
(§13) The 96-well compound plate was shaken on a shaker for 5 min.
(§14) 4. The STM in the JANUS in the computer was open to run the EXCEL file, and the JANUS program was operated and run by following the instructions in the EXCEL file.
(§15) 5. After the JANUS program was finished, acetonitrile/water 50:50 (V/V) was added to column 20 of the 384-well black plate, and blank control was added to column 21 of the 384-well black plate.
(§16) 6. the plate (420 nm-465 nm) was read on a microplate reader to determine the VIVID fluorescence intensity.
(§17) 7. After the plate was sealed, shaken and centrifuged, the sample plate was subjected to the LC/MS instrument for sample analysis.
(§18) A profile of the logarithmic value of the remaining rate of the drug in the incubation system versus the incubation time was plotted, and the slope k was obtained by linear regression. The intrinsic clearance rate in vivo (Clint, mL/min/g) value, the clearance rate in vivo (Cl, mL)/min), liver clearance (Clhep, mL/min) and metabolic bioavailability (% MF) were predicted according to the following equations: […]

[2] = Liver microsomal stability (human); type: in vitro ADME
Method: as §1, §2, §3, §4, §5, §6, §7, §8, §9, §10, §11, §12, §13, §14, §15, §16, §17, §18

[3] = Liver microsomal stability (mouse); type: in vitro ADME; conditions: mouse liver microsomes

Sequence of PRC2 enzyme (O75530 whole entry): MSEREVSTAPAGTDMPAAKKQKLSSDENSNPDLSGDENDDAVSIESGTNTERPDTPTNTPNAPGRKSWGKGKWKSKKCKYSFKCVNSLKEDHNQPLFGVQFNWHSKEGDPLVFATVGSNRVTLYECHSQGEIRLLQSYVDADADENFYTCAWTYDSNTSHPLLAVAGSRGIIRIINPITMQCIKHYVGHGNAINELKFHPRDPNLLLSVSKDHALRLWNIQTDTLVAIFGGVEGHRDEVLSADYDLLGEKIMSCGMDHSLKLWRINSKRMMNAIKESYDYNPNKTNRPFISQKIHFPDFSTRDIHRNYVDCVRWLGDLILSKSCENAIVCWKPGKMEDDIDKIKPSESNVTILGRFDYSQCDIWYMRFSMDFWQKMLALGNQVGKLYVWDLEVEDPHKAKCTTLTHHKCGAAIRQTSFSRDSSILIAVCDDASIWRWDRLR
Sequence of PRC2 enzyme (Q15910 whole entry partner): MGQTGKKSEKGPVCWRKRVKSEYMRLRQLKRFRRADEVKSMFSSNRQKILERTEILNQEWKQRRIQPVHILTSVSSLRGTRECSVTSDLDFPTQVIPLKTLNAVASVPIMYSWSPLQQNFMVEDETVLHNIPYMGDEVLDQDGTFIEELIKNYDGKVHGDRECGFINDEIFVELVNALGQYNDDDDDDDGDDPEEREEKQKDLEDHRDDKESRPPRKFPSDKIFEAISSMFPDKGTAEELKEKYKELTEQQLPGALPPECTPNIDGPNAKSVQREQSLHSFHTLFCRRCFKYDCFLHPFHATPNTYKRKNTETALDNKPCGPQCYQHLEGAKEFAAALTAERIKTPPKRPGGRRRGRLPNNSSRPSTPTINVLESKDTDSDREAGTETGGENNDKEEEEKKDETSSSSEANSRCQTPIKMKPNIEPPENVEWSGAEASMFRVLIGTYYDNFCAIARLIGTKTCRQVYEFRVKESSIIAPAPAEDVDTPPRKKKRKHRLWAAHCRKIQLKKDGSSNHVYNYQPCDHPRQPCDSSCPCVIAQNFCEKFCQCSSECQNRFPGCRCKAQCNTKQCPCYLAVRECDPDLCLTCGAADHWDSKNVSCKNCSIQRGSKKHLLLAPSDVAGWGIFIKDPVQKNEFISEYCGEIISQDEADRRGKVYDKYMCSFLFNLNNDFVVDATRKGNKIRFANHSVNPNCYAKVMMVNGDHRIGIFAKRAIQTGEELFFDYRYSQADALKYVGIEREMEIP
Sequence of PRC2 enzyme (Q15022 whole entry partner): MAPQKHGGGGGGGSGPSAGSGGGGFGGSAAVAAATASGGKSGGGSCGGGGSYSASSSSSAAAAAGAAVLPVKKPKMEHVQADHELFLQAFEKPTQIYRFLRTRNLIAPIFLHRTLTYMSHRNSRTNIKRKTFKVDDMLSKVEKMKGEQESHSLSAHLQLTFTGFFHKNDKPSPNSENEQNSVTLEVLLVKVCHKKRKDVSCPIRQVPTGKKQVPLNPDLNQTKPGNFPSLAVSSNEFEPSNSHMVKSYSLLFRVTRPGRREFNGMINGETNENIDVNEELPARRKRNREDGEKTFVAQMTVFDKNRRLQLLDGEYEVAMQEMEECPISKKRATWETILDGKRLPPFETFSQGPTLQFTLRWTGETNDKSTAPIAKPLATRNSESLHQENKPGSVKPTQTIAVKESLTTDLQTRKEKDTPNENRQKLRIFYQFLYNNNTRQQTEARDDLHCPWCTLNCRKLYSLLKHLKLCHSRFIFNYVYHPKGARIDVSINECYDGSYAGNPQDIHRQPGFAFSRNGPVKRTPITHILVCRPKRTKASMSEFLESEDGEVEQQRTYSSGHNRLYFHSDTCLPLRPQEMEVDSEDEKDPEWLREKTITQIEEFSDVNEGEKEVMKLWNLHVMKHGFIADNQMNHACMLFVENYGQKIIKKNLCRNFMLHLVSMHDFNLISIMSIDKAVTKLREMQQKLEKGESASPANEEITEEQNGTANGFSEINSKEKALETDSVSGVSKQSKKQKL

O=C(c1cnco1)N1CC=C(c2cnc(NCc3c(F)ccc4c3CCO4)n3cnnc23)CC1 [E-Y41] showed an IC50 (Pfeiffer cells) of 4.5 nM and an IC50 (PRC2 enzyme) of under 20 nM.
O=C(OCc1ccccc1)N1CC=C(c2cnc(NCc3c(F)ccc4c3CCO4)n3cnnc23)CC1 [E-Y44] showed an IC50 (Pfeiffer cells) of 2.3 nM and an IC50 (PRC2 enzyme) of 85.8 nM.
With C=CC(=O)N1CC=C(c2cnc(NCc3c(F)ccc4c3CCO4)n3cnnc23)CC1 [E-Y45] the IC50 (Pfeiffer cells) was 1.8 nM and the IC50 (PRC2 enzyme) was 3.4 nM.
CCNC(=O)N1CCC(c2cnc(NCc3c(F)ccc4c3CCO4)n3cnnc23)CC1 [E-Y48] showed an IC50 (Pfeiffer cells) of 15.9 nM and an IC50 (PRC2 enzyme) of 5.4 nM.
In the case of CC(C)(C)NC(=O)N1CCC(c2cnc(NCc3c(F)ccc4c3CCO4)n3cnnc23)CC1 [E-Y49], the IC50 (Pfeiffer cells) is reported as 10 nM and the IC50 (PRC2 enzyme) is reported as 6.6 nM.
Compound CC(C)(C)OC(=O)N1CC=C(c2cc(C#N)c(NCc3ccco3)n3cnnc23)CC1 [E-Y51] has an IC50 (PRC2 enzyme) of 200 nM.
With CN(C)CC(=O)N1CC=C(c2cnc(NCc3c(F)ccc4c3CCO4)n3cnnc23)CC1 [E-Y54-H] the “Clearance rate in vivo Clint In Vivo Extpl” value [1] was 4.26 mL/min, the “Half life T-half” value [1] was 222 min and the “Intrinsic clearance rate in vivo Clint In Vitro” value (from here on “Intrinsic clearance rate”) [1] was 9.47 mL/min/gprot. For the same compound, the “Liver clearance rate Clint Hep In Vivo Extpl” value [1] was 3.51 mL/min, the “Metabolic bioavailability MF %” value [1] was 82.4% and the “Clearance rate in vivo Clint In Vivo Extpl” value ([2]; human liver microsomes) was 336 mL/min. The “Half life T-half” value ([2]; human liver microsomes) was 479 min, the “Intrinsic clearance rate” value ([2]; human liver microsomes) was 4.39 mL/min/gprot and the “Liver clearance rate Clint Hep In Vivo Extpl” value ([2]; human liver microsomes) was 274 mL/min. For the same compound, the “Metabolic bioavailability MF %” value ([2]; human liver microsomes) was 81.7%, the “Clearance rate in vivo Clint In Vivo Extpl” value [3] was 1.21 mL/min and the “Half life T-half” value [3] was 117 min. The “Intrinsic clearance rate” value [3] was 17.9 mL/min/gprot, the “Liver clearance rate Clint Hep In Vivo Extpl” value [3] was 0.862 mL/min and the “Metabolic bioavailability MF %” value [3] was 71.3%. It also gave an IC50 (PRC2 enzyme) of 5 nM.
With CN(C)CC(=O)N1CC=C(c2cnc(NCc3c(F)ccc4c3CCO4)n3cnnc23)CC1 [E-Y54] the “Clearance rate in vivo Clint In Vivo Extpl” value [1] was 10.0 mL/min, the “Half life T-half” value [1] was 94.4 min and the “Intrinsic clearance rate” value [1] was 22.3 mL/min/gprot. The “Liver clearance rate Clint Hep In Vivo Extpl” value [1] was 6.67 mL/min, the “Metabolic bioavailability MF %” value [1] was 66.6% and the “Clearance rate in vivo Clint In Vivo Extpl” value ([2]; human liver microsomes) was 188 mL/min. For the same compound, the “Intrinsic clearance rate” value ([2]; human liver microsomes) was 2.46 mL/min/gprot, the “Liver clearance rate Clint Hep In Vivo Extpl” value ([2]; human liver microsomes) was 167 mL/min and the half-life ([2]; human, liver microsomes, pH 7.4, human liver microsomes, read-out: Half life T-half) was 853 min. For the same compound, the bioavailability ([2]; human, liver microsomes, pH 7.4, human liver microsomes, read-out: Metabolic bioavailability MF %) was 88.8%, the “Clearance rate in vivo Clint In Vivo Extpl” value [3] was 3.86 mL/min and the “Half life T-half” value [3] was 36.8 min. For the same compound, the “Intrinsic clearance rate” value [3] was 57.1 mL/min/gprot, the “Liver clearance rate Clint Hep In Vivo Extpl” value [3] was 1.69 mL/min and the “Metabolic bioavailability MF %” value [3] was 43.7%. For the same compound, the IC50 (PRC2 enzyme) was 4.1 nM.
Work on CC(=O)N1CCC=C(c2cnc(NCc3c(F)ccc4c3CCO4)n3cnnc23)CC1 [SL-E13] yielded an IC50 (Pfeiffer cells) of 6 nM and an IC50 (PRC2 enzyme) of 3.3 nM.
Compound CS(=O)(=O)N1CCC=C(c2cnc(NCc3c(F)ccc4c3CCO4)n3cnnc23)CC1 [SL-E14] has an IC50 (PRC2 enzyme) of 1.7 nM.
In the case of CN1CCC(c2cnc(NCc3c(F)ccc4c3CCO4)n3cnnc23)CC1 [SL-E25], the IC50 (PRC2 enzyme) is reported as 15 nM.
Work on CN1CCC(c2cnc(NCc3c(F)ccc4c3CCO4)n3cnnc23)CC1=O (stereo not drawn) [SL-E26] yielded an IC50 (PRC2 enzyme) of 8.4 nM.
Fc1ccc2c(c1CNc1ncc(C3CCCOCC3)c3nncn13)CCO2 (stereo not drawn) [SL-ZYE-08] gave an IC50 (PRC2 enzyme) of 11.9 nM.
Compound C1=C(c2cnc(NCc3cccc4c3CCO4)n3cnnc23)CCOC1 [SL-ZYE-11] has an IC50 (PRC2 enzyme) of 17.9 nM.
Compound c1cc(CNc2ncc(C3CCOCC3)c3nncn23)c2c(c1)OCC2 [SL-ZYE-14] has an IC50 (PRC2 enzyme) of 84 nM.
Work on C1=C(c2cnc(NCc3cccc4occc34)n3cnnc23)CCOC1 [SL-ZYE-17] yielded an IC50 (PRC2 enzyme) of 56 nM.
Compound CC(C)(C)OC(=O)N1CC=C(c2cnc(NCc3cccc4occc34)n3cnnc23)CC1 [SL-ZYE-18] has an IC50 (PRC2 enzyme) of 115 nM.
CC1C=C(c2cnc(NCc3c(F)ccc4c3CCO4)n3cnnc23)CC(C)N1C(=O)OC(C)(C)C (stereo not drawn) [SL-ZYE-23] gave an IC50 (PRC2 enzyme) of 47.6 nM.
In the case of O=S1(=O)CCC(c2cnc(NCc3c(F)ccc4c3CCO4)n3cnnc23)CC1 [SL-ZYE-34], the IC50 (PRC2 enzyme) is reported as 3.2 nM.
Compound CC1(C)C=C(c2cnc(NCc3c(F)ccc4c3CCO4)n3cnnc23)CCO1 [SL-ZYE-120] has an IC50 (PRC2 enzyme) of 3.6 nM.
Compound CC1(C)CC(c2cnc(NCc3c(F)ccc4c3CCO4)n3cnnc23)CCO1 (stereo not drawn) [SL-ZYE-121] has an IC50 (PRC2 enzyme) of 4.2 nM.
COC(=O)N1CC=C(c2cnc(NCc3c(F)ccc4c3CCO4)n3cnnc23)CC1 [SL-ZYE-147] gave an IC50 (Pfeiffer cells) of 1 to 3 nM.
With COC(=O)N1CCC=C(c2cnc(NCc3c(F)ccc4c3CCO4)n3cnnc23)CC1 [SL-ZYE-183] the IC50 (PRC2 enzyme) was 2.2 nM.
For CC1(C)C=C(c2cnc(NCc3c(F)ccc4c3CCO4)n3cnnc23)CC(C)(C)O1 [SL-ZYE-195], the IC50 (PRC2 enzyme) was 22.3 nM.
